The structures appear in SMILES notation.

As usually defined, the inhibition is how much of the control response was suppressed.

The assay has as its system transformed human vascular endothelial cells (ECV cells). Put plainly: Cellular growth assay (crystal violet), ECV cells. Type of assay: cell-based.

Protocol: Human embryonic lung fibroblasts (HFL-1 cells) and transformed endothelial cells (ECV cells) were obtained. Monolayer cultures were maintained on plastic in Eagle's MEM (Life Technologies, Ltd, Renfrewshire, UK). The medium was supplemented with 10% FCS (In Vitro AB, Stockholm, Sweden), 2 mM L-glutamine (ICN Biochemicals), penicillin (100 units/ml) and streptomycin (100 μg/ml) Cells were regularly checked for mycoplasma using GEN-PROBE Rapid detection system (Skafte & Claesson, Mölndal, Sweden).
In brief, cells were harvested by trypsinisation and seeded into 96-well microculture plates at 3000-5000 cells/well in Ham's F-12 medium (Sigma) supplemented with insulin (10 ng/ml), transferrin (25 ng/ml) and 10% FCS. After 4 h of plating, the cells were serum-starved for 24 h. […] Controls without growth factor and controls with different concentrations of DMSO were included. After 72, 96 and 120 h of growth, cells were fixed in glutaraldehyde, and cell nuclei were stained with crystal violet (Merck, Darmstadt, Germany). After washing and cell lysis for 24 h in 1% Triton X-100, the amount of bound dye was measured at 595 nm in a microplate photometer (Titertek multiscan). Results were corrected for DMSO effects.

Turning to `NCCC[C@](N)(C(=O)O)C(F)F` [DFMO, α-difluoromethylornithine], at 5000 µM the inhibition (Homo sapiens, Endothelial cell, 5 mM DFMO only, cells dependent on 1 μM spermin) was 5%.
As to `Oc1ccc2cc(O[C@@H]3OC[C@@H](O)[C@H](O)[C@H]3O)ccc2c1` [Xyl-2-Nap-6-OH, 6-hydroxy-2-naphthalenyl-β-D-xylopyranoside], the “inhibition of growth of ECV cells” value was 9% (0.05 mM Xyl-2-Nap-6-OH, untreated cells as reference) and 31% (Xyl-2-Nap-6-OH alone (concentration not restated; 0.2 mM in the compared combination)).
`Cc1ccc(C(=O)Nc2ccc(S(=O)(=O)O)c3cc(S(=O)(=O)O)cc(S(=O)(=O)O)c23)cc1NC(=O)c1cccc(NC(=O)Nc2cccc(C(=O)Nc3cc(C(=O)Nc4ccc(S(=O)(=O)O)c5cc(S(=O)(=O)O)cc(S(=O)(=O)O)c45)ccc3C)c2)c1` [suramin] displayed an inhibition at 200 µM (Homo sapiens, Endothelial cell, 0.2 mM suramin, untreated cells as reference) of 20%.
